The numbers were not newly measured in patent US12441755B2, “Galactoside inhibitor of galectins” (GALECTO BIOTECH AB, priority 2019, dated 2025), which cites them from elsewhere.

Structures are written as SMILES. Where only a bound is given, the exact number is not on record here.

One data set addresses Galectin-1 (Homo sapiens, UniProt P09382). The note with it: T. Delaine 2016; read-out: affinity to Galectin-1; cited from earlier work.
In another data set the target is galectins. The note with it: Leffler 2001, Leffler et al. 2004; read-out: Kd, all galectins; cited from earlier work.

Chain of Galectin-1 (P09382 whole entry, species assumed): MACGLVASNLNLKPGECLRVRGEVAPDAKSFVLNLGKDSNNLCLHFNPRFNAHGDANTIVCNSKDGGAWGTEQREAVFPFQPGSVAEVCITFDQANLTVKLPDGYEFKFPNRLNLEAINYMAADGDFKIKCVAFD

For `OCC1O[C@@H](SC2O[C@H](CO)C(O)C(n3cc(-c4ccsc4)nn3)[C@H]2O)C(O)C(n2cc(-c3ccsc3)nn2)[C@H]1O` (some centres unmarked), the Kd on Galectin-1 was < 10 nM. As to `OC[C@H]1O[C@@H](O[C@H]2[C@H](O)[C@@H](O)C(O)O[C@@H]2CO)[C@H](O)[C@@H](O)[C@H]1O` (some centres unmarked) [lactose], the Kd at galectins was 100 to 1000 µM.
